Columns and labels:
BACE1 = BACE1 (Homo sapiens (Human), UniProt P56817); experiment: Cellular Aβ-lowering assay (Aβ40 ELISA, HEK293 cells expressing human APP695); type: cell-based; settings: HEK293 cells stably transfected with human APP695; 18-20 hrs incubation; Aβ40 in supernatant; read-out: BACE1 cell act. Aβ40 IC50
Experimental: Cellular Aβ-Lowering Assay:
Human HEK293 cells which are stably transfected with a vector expressing a cDNA of the human APP wt gene (APP695) were used to assess the potency of the compounds in a cellular assay. The cells were seeded in 96-well microtiter plates in cell culture medium (Iscove, plus 10% (v/v) fetal bovine serum, glutamine, penicillin/streptomycin) to about 80% confluence and the compounds were added at a 10× concentration in 1/10 volume of medium without FCS containing 8% DMSO (final concentration of DMSO was kept at 0.8% v/v). After 18-20 hrs incubation at 37° C. and 5% CO2 in a humidified incubator the culture supernatant was harvested for the determination of […] concentrations. 96well ELISA plates (e.g., Nunc MaxiSorb) were coated with monoclonal antibody which specifically recognize the C-terminal end of […] (Brockhaus et al., NeuroReport 9, 1481-1486; 1998). After blocking of non-specific binding sites with e.g. 1% BSA and washing, the culture supernatants were added in suitable dilutions together with a horseradish peroxidase-coupled Aβ detection antibody (e.g., antibody 4G8, Senetek, Maryland Heights, Mo.) and incubated for 5 to 7 hrs. Subsequently the wells of the microtiter plate were washed extensively with Tris-buffered saline containing 0.05% Tween 20 and the assay was developed with tetramethylbenzidine/H2O2 in citric acid buffer. After stopping the reaction with one volume 1 N H2SO4 the reaction was measured in an ELISA reader at 450 nm wavelength. The concentrations of Aβ in the culture supernatants were calculated from a standard curve obtained with known amounts of pure Aβ peptide.

[1] = target: recombinant human cathepsin E (Homo sapiens (Human), UniProt P14091); experiment: Cathepsin E fluorescent substrate kinetic assay (MR121); type: biochemical; settings: pH 4.5, substrate MR121-CKLVFFAEDW
Sequence of recombinant human cathepsin E (P14091 54-396): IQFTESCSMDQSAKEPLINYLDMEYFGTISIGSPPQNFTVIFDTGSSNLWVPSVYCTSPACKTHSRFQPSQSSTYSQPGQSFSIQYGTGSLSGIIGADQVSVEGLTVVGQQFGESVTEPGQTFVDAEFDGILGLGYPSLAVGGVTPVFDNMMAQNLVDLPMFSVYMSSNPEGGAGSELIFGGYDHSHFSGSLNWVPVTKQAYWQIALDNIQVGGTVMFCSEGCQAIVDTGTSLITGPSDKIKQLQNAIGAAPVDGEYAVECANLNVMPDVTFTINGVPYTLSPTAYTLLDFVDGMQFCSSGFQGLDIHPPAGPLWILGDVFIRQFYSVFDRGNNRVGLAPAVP
Text: (§1) Cathepsin D and Cathepsin E Fluorescent Substrate Kinetic Assays General Assay Principle
(§2) The MR121 fluorescence assays described below are based on the fact that MR121 forms a non-fluorescent ground state complex with tryptophan. In solution this formation occurs at millimolar concentrations of tryptophan. The mechanism can be used to design a generic biochemical assay for proteases. A substrate peptide is labeled at the N-terminus with tryptophan and at the C-terminus with the fluorophore MR121 (for cathepsin D the 10 amino acid peptide WTSVLMAAPC-MR121 was used; for cathepsin E, MR121-CKLVFFAEDW was used). In absence of protease activity, the substrates remain intact and the MR121 fluorescence is reduced by the high local Trp-concentration. If the substrates are cleaved by the enzymes the MR121 fluorescence is recovered.
(§3) The fluorescent substrate cathepsin D and cathepsin E kinetic assays were performed at room temperature in 384-well microtiter plates (black with clear flat bottom, non binding surface plates from Corning) in a final volume of 51 μl. […] The enzymatic reaction was followed in a plate: vision reader (Perkin Elmer) (excitation wavelength: 630 nm; emission: 695 nm) for at least 30 minutes in a kinetic measurement detecting an increase of MR121 fluorescence during the reaction time. […]

[2] = target: cathepsin D (from human liver) (Homo sapiens (Human), UniProt P07339); experiment: Cathepsin D fluorescent substrate kinetic assay (MR121); type: biochemical; settings: pH 5.5, substrate WTSVLMAAPC-MR121
Sequence of cathepsin D (from human liver) (P07339 169-412): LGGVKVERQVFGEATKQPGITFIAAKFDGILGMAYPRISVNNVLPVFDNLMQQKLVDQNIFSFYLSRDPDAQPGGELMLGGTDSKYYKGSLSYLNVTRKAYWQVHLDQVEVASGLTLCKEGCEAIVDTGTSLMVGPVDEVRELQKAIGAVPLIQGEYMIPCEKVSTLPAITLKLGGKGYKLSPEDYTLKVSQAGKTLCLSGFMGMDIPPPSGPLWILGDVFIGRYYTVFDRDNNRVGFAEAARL
Sequence of cathepsin D (from human liver) (P07339 65-162): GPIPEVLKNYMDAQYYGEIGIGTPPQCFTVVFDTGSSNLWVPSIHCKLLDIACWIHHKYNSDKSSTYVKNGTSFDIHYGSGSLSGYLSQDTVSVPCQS
Text: as §1, §2, §3

BACE2 = BACE2 (Rattus norvegicus (Rat), UniProt Q6IE75); experiment: Assay for BACE inhibition by measuring cellular TMEM27 cleavage (INS-TMEM27 cells, ELISA); type: cell-based; settings: INS-TMEM27 (INS1e-derived) cells; shed TMEM27 in supernatant; read-out: BACE2 cell act. IC50
Sequence of BACE2 (Q6IE75 63-514): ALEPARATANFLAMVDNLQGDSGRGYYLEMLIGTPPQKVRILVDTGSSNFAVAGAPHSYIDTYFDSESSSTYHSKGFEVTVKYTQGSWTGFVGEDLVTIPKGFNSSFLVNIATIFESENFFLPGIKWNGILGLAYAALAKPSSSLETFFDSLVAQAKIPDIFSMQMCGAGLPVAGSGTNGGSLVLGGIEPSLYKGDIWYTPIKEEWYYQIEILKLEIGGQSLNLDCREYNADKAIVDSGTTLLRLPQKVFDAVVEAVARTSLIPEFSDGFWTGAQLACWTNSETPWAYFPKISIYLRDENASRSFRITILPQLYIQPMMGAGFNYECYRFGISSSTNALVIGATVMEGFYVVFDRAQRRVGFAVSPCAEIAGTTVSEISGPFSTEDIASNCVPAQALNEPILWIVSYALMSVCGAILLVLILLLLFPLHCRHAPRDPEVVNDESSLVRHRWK
Text: Assay for BACE Inhibition by Measuring Cellular TMEM27 Cleavage:
The assay uses the principle of inhibition of human TMEM27 cleavage by endogenous cellular BACE2 in the Ins1e rat cell line and shedding from the cell surface into the culture medium, followed by detection in an ELISA assay. Inhibition of BACE2 prevents the cleavage and shedding in a dose-dependent manner
The stable cell line “INS-TMEM27” represents an INS1e-derived cell line with inducible expression (using the TetOn system) of full-length hTMEM27 in a doxycycline-dependent manner. The cells are cultured throughout the experiment in RPMI1640 +Glutamax (Invitrogen) Penicillin/Streptomycin, 10% Fetal bovine serum, […], […], 100 micrograms/ml G418 and 100 microgram/ml hygromycin and are grown inadherent culture at 37° C. in a standard CO2 cell culture incubator.
INS-TMEM27 cells are seeded in 96-well plates. After 2 days in culture, BACE2 inhibitor is added in a range of concentrations as required by the assay and after a further two hours, doxycycline is added to a final concentration of 500 ng/ml. The cells are incubated for a further 46 hours and the supernatant harvested for detection of shed TMEM27.
An ELISA assay (using a pair of mouse anti-human-TMEM27 antibodies, raised against the extracellular domain of TMEM27) is used for detection of TMEM27 in the culture medium. An EC50 for BACE2 inhibition is calculated using the ELISA readout for each inhibitor concentration with standard curve-fitting software such as XLFit for the Excel spreadsheet program.

CYP3A4 = CYP3A4 (Homo sapiens (Human), UniProt P08684); experiment: CYP inhibition assay, human liver microsomes, midazolam 1' hydroxylase; type: in vitro ADME; settings: pooled human liver microsomes, midazolam substrate; read-out: CYP IC50 3A4
Sequence of CYP3A4 (P08684 whole entry): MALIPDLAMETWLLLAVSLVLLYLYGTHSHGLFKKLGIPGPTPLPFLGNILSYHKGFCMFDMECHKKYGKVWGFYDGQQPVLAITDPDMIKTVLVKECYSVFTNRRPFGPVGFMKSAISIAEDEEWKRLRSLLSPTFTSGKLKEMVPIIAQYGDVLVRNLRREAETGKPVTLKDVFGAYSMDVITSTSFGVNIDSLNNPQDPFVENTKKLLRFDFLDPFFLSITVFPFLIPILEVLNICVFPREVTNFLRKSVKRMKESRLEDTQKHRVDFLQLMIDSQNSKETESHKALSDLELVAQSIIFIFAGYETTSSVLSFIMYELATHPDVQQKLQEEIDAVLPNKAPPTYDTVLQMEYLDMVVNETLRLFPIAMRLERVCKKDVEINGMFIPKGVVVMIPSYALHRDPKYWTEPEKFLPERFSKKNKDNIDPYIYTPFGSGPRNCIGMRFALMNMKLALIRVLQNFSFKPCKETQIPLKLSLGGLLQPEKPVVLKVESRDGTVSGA
Experimental: (§4) Inhibition of cytochromes P450 (CYPs) 2C9, 2D6 and 3A4 was assessed using human liver microsomes and CYP-selective substrate metabolism reactions. 50 μl incubations were made up containing (finally) 0.2 mg/ml pooled human liver microsomes, 5 μM substrate (diclofenac for CYP2C9 [4′ hydroxylase], dextromethorphan for CYP2D6 [O-demethylase] or midazolam for CYP3A4 [1′ hydroxylase]), 0.25 μl, DMSO containing test inhibitor and NADPH regenerating system. Test inhibitor concentrations of 50, 16.7, 5.6, 1.9, 0.6 and 0.2 μM were assessed in singlicate. Incubations were prewarmed to 37° C. for 10 minutes before initiation by addition of NADPH regenerating system. Incubations were quenched after 5 minutes (20 minutes for dextromethorphan) by addition of 50 μl cold acetonitrile containing 20 ng/ml 4-OH-diclofenac-13C6, 20 ng/mL dextrorphan-D3 and 20 ng/mL 1-OH-midazolam-D4. Quenched incubates were stored at −20° C. for at least 1 hour before centrifugation (20,000×g, 20 minutes). Supernatants were removed and diluted 1:1 with water prior to analysis using a RapidFire sample injector system and API4000 mass spectrometer. Peak areas for substrate, metabolite and stable-labelled metabolite standard were determined using MS/MS. […] The percentage of (DMSO) control activity was calculated for each incubate and IC50 values estimated by non-linear regression. […]

CYP2D6 = CYP2D6 (Homo sapiens (Human), UniProt P10635); experiment: CYP inhibition assay, human liver microsomes, dextromethorphan O-demethylase; type: in vitro ADME; settings: pooled human liver microsomes, dextromethorphan substrate; read-out: CYP IC50 2D6
Sequence of CYP2D6 (P10635 whole entry): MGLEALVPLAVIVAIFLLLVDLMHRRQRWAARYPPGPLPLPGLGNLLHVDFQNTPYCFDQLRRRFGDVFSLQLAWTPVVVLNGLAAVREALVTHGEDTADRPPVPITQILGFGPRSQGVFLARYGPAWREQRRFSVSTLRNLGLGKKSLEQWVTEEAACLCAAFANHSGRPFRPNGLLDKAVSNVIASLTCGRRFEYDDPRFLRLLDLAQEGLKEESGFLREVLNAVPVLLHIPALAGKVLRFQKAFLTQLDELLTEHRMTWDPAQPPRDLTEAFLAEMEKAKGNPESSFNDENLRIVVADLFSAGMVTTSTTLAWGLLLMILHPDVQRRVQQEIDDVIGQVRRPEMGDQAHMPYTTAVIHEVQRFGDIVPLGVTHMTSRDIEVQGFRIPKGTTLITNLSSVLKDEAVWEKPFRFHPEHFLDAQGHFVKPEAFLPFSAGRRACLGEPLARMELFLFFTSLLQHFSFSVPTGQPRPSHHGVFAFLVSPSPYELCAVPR
Experimental: as §4

CYP2C9 = CYP2C9 (Homo sapiens (Human), UniProt P11712); experiment: CYP inhibition assay, human liver microsomes, diclofenac 4' hydroxylase; type: in vitro ADME; settings: pooled human liver microsomes, diclofenac substrate; read-out: CYP IC50 2C9
Sequence of CYP2C9 (P11712 whole entry): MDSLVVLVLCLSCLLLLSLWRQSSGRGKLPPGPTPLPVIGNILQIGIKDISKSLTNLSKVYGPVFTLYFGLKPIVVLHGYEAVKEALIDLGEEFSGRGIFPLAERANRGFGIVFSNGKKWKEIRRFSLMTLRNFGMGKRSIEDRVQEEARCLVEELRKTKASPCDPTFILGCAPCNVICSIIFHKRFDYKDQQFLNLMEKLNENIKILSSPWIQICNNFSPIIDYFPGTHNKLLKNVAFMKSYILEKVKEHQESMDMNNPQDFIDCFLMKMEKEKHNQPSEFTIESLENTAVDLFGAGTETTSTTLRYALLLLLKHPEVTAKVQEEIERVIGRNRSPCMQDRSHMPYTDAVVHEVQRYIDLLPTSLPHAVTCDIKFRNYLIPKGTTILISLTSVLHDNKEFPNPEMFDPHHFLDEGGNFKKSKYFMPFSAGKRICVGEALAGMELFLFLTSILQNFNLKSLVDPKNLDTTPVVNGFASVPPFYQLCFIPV
Experimental: as §4

Sequence of BACE1 (P56817 46-501): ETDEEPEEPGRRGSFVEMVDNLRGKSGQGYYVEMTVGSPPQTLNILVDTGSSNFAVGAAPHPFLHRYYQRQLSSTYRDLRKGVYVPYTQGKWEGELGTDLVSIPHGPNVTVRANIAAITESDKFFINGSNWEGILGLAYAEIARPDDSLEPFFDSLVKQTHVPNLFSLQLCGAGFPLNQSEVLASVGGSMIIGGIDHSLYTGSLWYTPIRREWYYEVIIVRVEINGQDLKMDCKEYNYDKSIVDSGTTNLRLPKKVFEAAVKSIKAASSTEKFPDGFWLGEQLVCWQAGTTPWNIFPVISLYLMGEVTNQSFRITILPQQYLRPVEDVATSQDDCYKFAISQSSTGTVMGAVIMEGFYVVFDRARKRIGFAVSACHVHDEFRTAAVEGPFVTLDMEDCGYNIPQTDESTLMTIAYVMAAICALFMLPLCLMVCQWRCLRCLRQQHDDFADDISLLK

SMILES | IC50 (BACE1) [nM] | IC50 [1] [nM] | IC50 [2] [nM] | IC50 (BACE2) [nM] | IC50 (CYP3A4) [nM] | IC50 (CYP2D6) [nM] | IC50 (CYP2C9) [nM]
CC1(c2cccc(Nc3cc(F)cc4cc(Cl)cnc34)c2)COCC(N)=N1 (stereo not drawn) [Example 36, [3-(5-Amino-3-methyl-3,6-dihydro-2H-[1,4]oxazin-3-yl)-phenyl]-(3-chloro-6-fluoro-quinolin-8-yl)-amine] | 250 | 5000 | 2600 |  |  |  | 
Cn1nc(Nc2ccc(F)c([C@@]3(C)COCC(N)=N3)c2)c2ccc(Cl)cc21 [Example 34, (S)-5-(5-(6-chloro-1-methyl-1H-indazol-3-ylamino)-2-fluorophenyl)-5-methyl-5,6-dihydro-2H-1,4-oxazin-3-amine] | 1040 |  |  | 1480 | 25000 | 2000 | 6700
C[C@@]1(c2cc(Nc3cc(Cl)cc4cc(Cl)cnc34)ccc2F)COCC(N)=N1 [Example 27, [3-((R)-5-Amino-3-methyl-3,6-dihydro-2H-[1,4]oxazin-3-yl)-4-fluoro-phenyl]-(3,6-dichloro-quinolin-8-yl)-amine] | 660 |  |  | 558 | 33000 | 4500 | > 50000
C[C@@]1(c2cc(N[C@H]3CCC[C@H]3O)ccc2F)COCC(N)=N1 [Example 20, (1R,2S)-2-(3-((R)-5-amino-3-methyl-3,6-dihydro-2H-1,4-oxazin-3-yl)-4-fluorophenylamino)cyclopentanol] | 610 |  |  | 2270 |  |  | 
C[C@@]1(c2cc(Nc3cccc4cc(OC(F)F)cnc34)ccc2F)COCC(N)=N1 [Example 29, [3-((R)-5-Amino-3-methyl-3,6-dihydro-2H-[1,4]oxazin-3-yl)-4-fluoro-phenyl]-(3-difluoromethoxy-quinolin-8-yl)-amine] | 270 | 17600 | 21100 | 2300 |  |  | 
C[C@@]1(c2cc(Nc3ccon3)ccc2F)COCC(N)=N1 [Example 33, (R)-5-[2-Fluoro-5-(isoxazol-3-ylamino)-phenyl]-5-methyl-5,6-dihydro-2H-[1,4]oxazin-3-ylamine] | 580 |  |  | 1210 |  |  | 
C[C@@]1(c2cc(Nc3cccc4cc(Cl)cnc34)ccc2F)COCC(N)=N1 [Example 26, [3-((R)-5-Amino-3-methyl-3,6-dihydro-2H-[1,4]oxazin-3-yl)-4-fluoro-phenyl]-(3-chloro-quinolin-8-yl)-amine] | 160 |  |  | 77 |  |  | 
C[C@@]1(c2cc(NCC3CC3)ccc2F)COCC(N)=N1 [Example 21, (R)-5-(5-(cyclopropylmethylamino)-2-fluorophenyl)-5-methyl-5,6-dihydro-2H-1,4-oxazin-3-amine] | 130 |  |  | 279 |  |  | 
C[C@@]1(c2cc(NC3CCCC3)ccc2F)COCC(N)=N1 [Example 15, (R)-5-(5-(cyclopentylamino)-2-fluorophenyl)-5-methyl-5,6-dihydro-2H-1,4-oxazin-3-amine] | 120 |  |  | 170 |  |  | 

Reference: patent US9242943B2, “1,4 oxazines as BACE1 and/or BACE2 inhibitors” (SIENA BIOTECH S.P.A., priority 2011, dated 2016)
